Assay results from paper PMC11003488 (Journal of Enzyme Inhibition and Medicinal Chemistry, 2023).

Columns and labels:
Experiment in all cases: NCI-60 SRB growth inhibition, one-dose and five-dose
Assay type in all cases: cell-based
OVCAR-8 = conditions: Homo sapiens; for inhibition at 10 µM: OVCAR-8, read-out: percent growth inhibition
TK-10 = conditions: Homo sapiens; for GI50: TK-10; for inhibition at 10 µM: TK-10, read-out: percent growth inhibition
SK-MEL-5 = conditions: Homo sapiens; for GI50: SK-MEL-5; for inhibition at 10 µM: SK-MEL-5, read-out: percent growth inhibition
MALME-3M = conditions: Homo sapiens; for inhibition at 10 µM: read-out: percent growth inhibition
CAKI-1 = conditions: Homo sapiens; for GI50: CAKI-1; for inhibition at 10 µM: CAKI-1, read-out: percent growth inhibition
NCI/ADR-RES = conditions: Homo sapiens
PC-3 = conditions: Homo sapiens; for GI50: PC-3; for inhibition at 10 µM: PC-3, read-out: percent growth inhibition
NCI-H522 = conditions: Homo sapiens; for GI50: NCI-H522; for inhibition at 10 µM: NCI-H522, read-out: percent growth inhibition
UACC-62 = conditions: Homo sapiens; for GI50: UACC-62; for inhibition at 10 µM: UACC-62, read-out: percent growth inhibition
HCC-2998 = conditions: Homo sapiens; for GI50: HCC 2998; for inhibition at 10 µM: HCC 2998, read-out: percent growth inhibition
KM12 = conditions: Homo sapiens; for GI50: KM12; for inhibition at 10 µM: KM12, read-out: percent growth inhibition
DU-145 = conditions: Homo sapiens; for GI50: DU-145; for inhibition at 10 µM: DU-145, read-out: percent growth inhibition
HT29 = conditions: Homo sapiens; for GI50: HT-29; for inhibition at 10 µM: HT-29, read-out: percent growth inhibition
NCI-H322M = conditions: Homo sapiens; for inhibition at 10 µM: read-out: percent growth inhibition
MDA-MB-468 = conditions: Homo sapiens; for GI50: MDA-MB-468; for inhibition at 10 µM: MDA-MB-468, read-out: percent growth inhibition
SF-268 = conditions: Homo sapiens; for GI50: SF-268; for inhibition at 10 µM: SF-268, read-out: percent growth inhibition
A549/ATCC = conditions: Homo sapiens; for GI50: A549; for inhibition at 10 µM: A549, read-out: percent growth inhibition
MDA-MB-435 = conditions: Homo sapiens; for GI50: MDA-MB-435; for inhibition at 10 µM: MDA-MB-435, read-out: percent growth inhibition
BT-549 = conditions: Homo sapiens; for GI50: BT-549; for inhibition at 10 µM: BT-549, read-out: percent growth inhibition
A498 = conditions: Homo sapiens; for GI50: A498; for inhibition at 10 µM: A498, read-out: percent growth inhibition
HOP-92 = conditions: Homo sapiens; for GI50: HOP-92; for inhibition at 10 µM: HOP-92, read-out: percent growth inhibition
SK-OV-3 = conditions: Homo sapiens; for GI50: SK-OV-3; for inhibition at 10 µM: SK-OV-3, read-out: percent growth inhibition
M14 = conditions: Homo sapiens; for GI50: M14; for inhibition at 10 µM: M14, read-out: percent growth inhibition
NCI-H460 = conditions: Homo sapiens; for GI50: NCI-H460; for inhibition at 10 µM: NCI-H460, read-out: percent growth inhibition
EKVX = conditions: Homo sapiens; for inhibition at 10 µM: read-out: percent growth inhibition
U251 = conditions: Homo sapiens; for GI50: U-251; for inhibition at 10 µM: U-251, read-out: percent growth inhibition
SNB-75 = conditions: Homo sapiens; for GI50: SNB-75; for inhibition at 10 µM: SNB-75, read-out: percent growth inhibition
SR = conditions: Homo sapiens
SW-620 = conditions: Homo sapiens; for GI50: SW-620; for inhibition at 10 µM: SW-620, read-out: percent growth inhibition
LOX IMVI = conditions: Homo sapiens; for inhibition at 10 µM: read-out: percent growth inhibition
SK-MEL-28 = conditions: Homo sapiens; for GI50: SK-MEL-28; for inhibition at 10 µM: SK-MEL-28, read-out: percent growth inhibition
CCRF-CEM = conditions: Homo sapiens; for inhibition at 10 µM: read-out: percent growth inhibition
T-47D = conditions: Homo sapiens, T47D; for inhibition at 10 µM: read-out: percent growth inhibition
MCF7 = conditions: Homo sapiens; for GI50: MCF7; for inhibition at 10 µM: MCF7, read-out: percent growth inhibition
786-0 = conditions: Homo sapiens; for GI50: 786-0; for inhibition at 10 µM: 786-0, read-out: percent growth inhibition
SK-MEL-2 = conditions: Homo sapiens; for inhibition at 10 µM: SK-MEL-2, read-out: percent growth inhibition
ACHN = conditions: Homo sapiens; for inhibition at 10 µM: read-out: percent growth inhibition
NCI-H226 = conditions: Homo sapiens; for GI50: NCI-H226; for inhibition at 10 µM: NCI-H226, read-out: percent growth inhibition
K-562 = conditions: Homo sapiens; for GI50: K562; for inhibition at 10 µM: K562, read-out: percent growth inhibition
NCI-H23 = conditions: Homo sapiens; for GI50: NCI-H23; for inhibition at 10 µM: NCI-H23, read-out: percent growth inhibition
RPMI-8226 = conditions: Homo sapiens; for GI50: RPMI-8226; for inhibition at 10 µM: RPMI-8226, read-out: percent growth inhibition
SN12C = conditions: Homo sapiens; for inhibition at 10 µM: read-out: percent growth inhibition
HOP-62 = conditions: Homo sapiens; for GI50: HOP-62; for inhibition at 10 µM: HOP-62, read-out: percent growth inhibition
[1] = read-out: percent growth inhibition

O=C(/C=C/c1cccnc1)c1cccc(NCc2ccc(CO)cc2)c1 [Compound 5e, (E)-1–(3-((4-(hydroxymethyl)benzyl)amino)phenyl)-3-(pyridin-3-yl)prop-2-en-1-one]
inhibition at 10 µM (OVCAR-8): 97.2%
GI50 (TK-10): 15 µM
inhibition at 10 µM (TK-10): 30.6%
GI50 (SK-MEL-5): 12.5 µM
inhibition at 10 µM (SK-MEL-5): 85.7%
GI50 (MALME-3M): 13.3 µM
inhibition at 10 µM (MALME-3M): 41.4%
GI50 (CAKI-1): 13.5 µM
inhibition at 10 µM (CAKI-1): 42.3%
GI50 (NCI/ADR-RES): 11.3 µM
inhibition at 10 µM (NCI/ADR-RES; [1]): 104%
GI50 (PC-3): 11.6 µM
inhibition at 10 µM (PC-3): 62.6%
GI50 (NCI-H522): 11.4 µM
inhibition at 10 µM (NCI-H522): 57.6%
GI50 (UACC-62): 11.3 µM
inhibition at 10 µM (UACC-62): 59.8%
GI50 (HCC-2998): 5.6 µM
inhibition at 10 µM (HCC-2998): 190%
GI50 (KM12): 7.91 µM
inhibition at 10 µM (KM12): 189%
GI50 (DU-145): 12.8 µM
inhibition at 10 µM (DU-145): 55%
GI50 (HT29): 8.21 µM
inhibition at 10 µM (HT29): 173%
GI50 (NCI-H322M): 15 µM
inhibition at 10 µM (NCI-H322M): 18.6%
GI50 (MDA-MB-468): 4 µM
inhibition at 10 µM (MDA-MB-468): 153%
GI50 (SF-268): 16.9 µM
inhibition at 10 µM (SF-268): 64.8%
GI50 (A549/ATCC): 16.9 µM
inhibition at 10 µM (A549/ATCC): 16.4%
GI50 (MDA-MB-435): 5.26 µM
inhibition at 10 µM (MDA-MB-435): 58.7%
GI50 (BT-549): 6.12 µM
inhibition at 10 µM (BT-549): 98.1%
GI50 (A498): 14.8 µM
inhibition at 10 µM (A498): 15.3%
GI50 (HOP-92): 12.5 µM
inhibition at 10 µM (HOP-92): 23.3%
GI50 (SK-OV-3): 15.8 µM
inhibition at 10 µM (SK-OV-3): 0.04%
GI50 (M14): 12.4 µM
inhibition at 10 µM (M14): 91.9%
GI50 (NCI-H460): 14 µM
inhibition at 10 µM (NCI-H460): 64.7%
GI50 (EKVX): 13.7 µM
inhibition at 10 µM (EKVX): 56.8%
GI50 (U251): 4.94 µM
inhibition at 10 µM (U251): 146%
GI50 (SNB-75): 9.69 µM
inhibition at 10 µM (SNB-75): 14.7%
GI50 (SR): 2.62 µM
GI50 (SW-620): 2.06 µM
inhibition at 10 µM (SW-620): 140%
GI50 (LOX IMVI): 1.76 µM
inhibition at 10 µM (LOX IMVI): 197%
GI50 (SK-MEL-28): 13.6 µM
inhibition at 10 µM (SK-MEL-28): 121%
GI50 (CCRF-CEM): 5.17 µM
inhibition at 10 µM (CCRF-CEM): 131%
GI50 (T-47D): 9.17 µM
inhibition at 10 µM (T-47D): 59.1%
GI50 (MCF7): 2.15 µM
inhibition at 10 µM (MCF7): 163%
GI50 (786-0): 15.2 µM
inhibition at 10 µM (786-0): 108%
inhibition at 10 µM (SK-MEL-2): 17.7%
GI50 (ACHN): 8.07 µM
inhibition at 10 µM (ACHN): 81.6%
GI50 (NCI-H226): 11.2 µM
inhibition at 10 µM (NCI-H226): 123%
GI50 (K-562): 2.75 µM
inhibition at 10 µM (K-562): 99.1%
GI50 (NCI-H23): 12.9 µM
inhibition at 10 µM (NCI-H23): 79.3%
GI50 (RPMI-8226): 2.27 µM
inhibition at 10 µM (RPMI-8226): 133%
GI50 (SN12C): 12.3 µM
inhibition at 10 µM (SN12C): 94.4%
GI50 (HOP-62): 15 µM
inhibition at 10 µM (HOP-62): 20.7%

CC(=O)Nc1ccc(/C=C/C(=O)c2cccc(NCc3ccc(C)cc3)c2)cc1 [Compound 5f, (E)-N-(4–(3-(3-((4-methylbenzyl)amino)phenyl)-3-oxoprop-1-en-1-yl)phenyl)acetamide]
GI50 (OVCAR-8; OVCAR-8): 2.98 µM
inhibition at 10 µM (OVCAR-8): 88.1%
GI50 (TK-10): 13.8 µM
inhibition at 10 µM (TK-10): -10.1%
GI50 (SK-MEL-5): 7.24 µM
inhibition at 10 µM (SK-MEL-5): 49.6%
GI50 (MALME-3M): 12.3 µM
inhibition at 10 µM (MALME-3M): 31.1%
GI50 (CAKI-1): 10.8 µM
inhibition at 10 µM (CAKI-1): 23.2%
GI50 (NCI/ADR-RES): 3.72 µM
GI50 (PC-3): 12.7 µM
inhibition at 10 µM (PC-3): 67.2%
GI50 (NCI-H522): 11 µM
inhibition at 10 µM (NCI-H522): 106%
GI50 (UACC-62): 10.8 µM
inhibition at 10 µM (UACC-62): 48.7%
GI50 (HCC-2998): 13.9 µM
inhibition at 10 µM (HCC-2998): 15.2%
GI50 (KM12): 7.04 µM
inhibition at 10 µM (KM12): 136%
GI50 (DU-145): 7.44 µM
inhibition at 10 µM (DU-145): 62.1%
GI50 (HT29): 10.7 µM
inhibition at 10 µM (HT29): 128%
GI50 (NCI-H322M): 15.1 µM
inhibition at 10 µM (NCI-H322M): 22.5%
GI50 (MDA-MB-468): 4.23 µM
inhibition at 10 µM (MDA-MB-468): 85.6%
GI50 (SF-268): 4.58 µM
inhibition at 10 µM (SF-268): 45.8%
GI50 (A549/ATCC): 24.6 µM
inhibition at 10 µM (A549/ATCC): 30.5%
GI50 (MDA-MB-435): 6.21 µM
inhibition at 10 µM (MDA-MB-435): 35.7%
GI50 (BT-549): 5.26 µM
inhibition at 10 µM (BT-549): 66%
GI50 (A498): 17.9 µM
inhibition at 10 µM (A498): -0.63%
GI50 (HOP-92): 15.5 µM
inhibition at 10 µM (HOP-92): 8.52%
GI50 (SK-OV-3): 25.8 µM
inhibition at 10 µM (SK-OV-3): 31.6%
GI50 (M14): 14 µM
inhibition at 10 µM (M14): 54.7%
GI50 (NCI-H460): 4.18 µM
inhibition at 10 µM (NCI-H460): 68%
GI50 (EKVX): 12.6 µM
inhibition at 10 µM (EKVX): 20.9%
GI50 (U251): 3.89 µM
inhibition at 10 µM (U251): 127%
GI50 (SNB-75): 12.5 µM
inhibition at 10 µM (SNB-75): 32.3%
GI50 (SR): 1.51 µM
inhibition at 10 µM (SR; [1]): 96.5%
GI50 (SW-620): 2.17 µM
inhibition at 10 µM (SW-620): 156%
GI50 (LOX IMVI): 2.97 µM
inhibition at 10 µM (LOX IMVI): 157%
GI50 (SK-MEL-28): 15.2 µM
inhibition at 10 µM (SK-MEL-28): 25%
GI50 (CCRF-CEM): 2.84 µM
inhibition at 10 µM (CCRF-CEM): 87.2%
GI50 (T-47D): 10.2 µM
inhibition at 10 µM (T-47D): 86.5%
GI50 (MCF7): 3.37 µM
inhibition at 10 µM (MCF7): 90.5%
GI50 (786-0): 10.3 µM
inhibition at 10 µM (786-0): 60.4%
GI50 (SK-MEL-2; SK-MEL-2): 11.5 µM
inhibition at 10 µM (SK-MEL-2): 16.5%
GI50 (ACHN): 13.2 µM
inhibition at 10 µM (ACHN): 65%
GI50 (NCI-H226): 13.7 µM
inhibition at 10 µM (NCI-H226): 21.8%
GI50 (K-562): 3.04 µM
inhibition at 10 µM (K-562): 64.2%
GI50 (NCI-H23): 10.4 µM
inhibition at 10 µM (NCI-H23): 26.2%
GI50 (RPMI-8226): 2.29 µM
inhibition at 10 µM (RPMI-8226): 105%
GI50 (SN12C): 7.76 µM
inhibition at 10 µM (SN12C): 88%
GI50 (HOP-62): 13.9 µM
inhibition at 10 µM (HOP-62): 13.9%
